According to patent US4021574A, “Antidandruff compositions containing 9-(4-lower alkoxy-2,3,6-trilower-alkylphenyl)-3,7-dimethyl-nona-2,4,6,8-tetraen-1-o ic acid lower alkyl amides” (Hoffmann-La Roche Inc., priority 1974, dated 1977):

Columns and labels:
LD50 s.c. in the mouse = conditions: in vivo, sc
corneocytes on the scalp = assay: Antidandruff activity: number of corneocytes on the scalp of male volunteers; format: in vivo, human (male volunteers)
Experimental: Dermatology, Vol. 53, p. 107 (1969). Each volunteer was treated by applying to the scalp 15 ml. of 0.1% by weight solution thereof daily for seven days. The number of corneocytes on the scalp of each subject was determined one day before treatment began and 1 day after termination of treatment.

Structure (SMILES): CCNC(=O)/C=C(C)/C=C/C=C(C)/C=C/c1c(C)cc(OC)c(C)c1C [9-(4-methoxy-2,3,6-trimethylphenyl)-3,7-dimethyl-nona-2,4,6,8-tetraen-1-oic acid ethyl amide]
- LD50 (LD50 s.c. in the mouse): > 4000 mg/kg
- Number of Corneocytes, one day post treatment (corneocytes on the scalp; Volunteer No. 1, 15 ml of 0.1% by weight solution on scalp daily for seven days, one day pre-treatment: 2100): 1400
- Number of Corneocytes, one day post treatment (corneocytes on the scalp; Volunteer No. 2, 15 ml of 0.1% by weight solution on scalp daily for seven days, one day pre-treatment: 5100): 1500
- Number of Corneocytes, one day post treatment (corneocytes on the scalp; Volunteer No. 3, 15 ml of 0.1% by weight solution on scalp daily for seven days, one day pre-treatment: 3250): 1600
- Number of Corneocytes, one day post treatment (corneocytes on the scalp; Volunteer No. 4, 15 ml of 0.1% by weight solution on scalp daily for seven days, one day pre-treatment: 1900): 1600
- decline in number of corneocytes (average) (corneocytes on the scalp; four volunteers, one day post treatment vs one day pre-treatment, 15 ml of 0.1% by weight solution daily for seven days): 50%
- Number of Corneocytes, one day post treatment, Total (corneocytes on the scalp; total of four volunteers, 15 ml of 0.1% by weight solution on scalp daily for seven days, one day pre-treatment total: 12350): 6100
